Laboratory results taken from ChEMBL document CHEMBL3045404, “Structure-Activity Relationships of 2-Chloropyridine-3-carboxamide Fungicides” (J Pestic Sci, 1992).

Experiments:
Rhizoctonia solani = assay: Antifungal activity against Rhizoctonia solani infested in rice seedling incubated for 40 hr in moist chamber followed by incubation for 3 days in greenhouse conditions; assay type: functional, organism-based
Botrytis cinerea = assay: Antifungal activity against Botryotinia fuckeliana infested in cucumber seedling cotyledons after 4 days by pot test; assay type: functional

CCC1(CC)CCc2cccc(NC(=O)c3cccnc3Cl)c2O1
EC50 (Rhizoctonia solani): 1150 µM
pEC90 (Botrytis cinerea): 4.41

CC1(C)CCc2c(NC(=O)c3cccnc3Cl)cccc21
EC50 (Rhizoctonia solani): 28.8 µM
pEC90 (Botrytis cinerea): 2.97

O=C(Nc1cccc2c1OCC2)c1cccnc1Cl
EC50 (Rhizoctonia solani): 1620 µM
pEC90 (Botrytis cinerea): <2.2

CC1(C)CCc2cccc(NC(=O)c3cccnc3Cl)c2O1
EC50 (Rhizoctonia solani): 1450 µM
pEC90 (Botrytis cinerea): 3.66

Cc1oc2cccc(NC(=O)c3cccnc3Cl)c2c1C
EC50 (Rhizoctonia solani): 603 µM
pEC90 (Botrytis cinerea): <2.2

O=C(Nc1ccccc1)c1cccnc1Cl
EC50 (Rhizoctonia solani): 1000 µM
pEC90 (Botrytis cinerea): 2.2

CCOc1cccc(NC(=O)c2cccnc2Cl)c1
EC50 (Rhizoctonia solani): 85.1 µM
pEC90 (Botrytis cinerea): <2.2

CCC1(C)Oc2c(NC(=O)c3cccnc3Cl)cccc2C(C)O1 (stereo unspecified)
EC50 (Rhizoctonia solani): 13.2 µM
pEC90 (Botrytis cinerea): 3.57

CC1(C)OCc2cccc(NC(=O)c3cccnc3Cl)c2O1
EC50 (Rhizoctonia solani): 1450 µM
pEC90 (Botrytis cinerea): 3.29

CC(C)c1ccccc1NC(=O)c1cccnc1Cl
EC50 (Rhizoctonia solani): 1510 µM
pEC90 (Botrytis cinerea): 3.19

CC1SCc2cccc(NC(=O)c3cccnc3Cl)c21 (stereo unspecified)
EC50 (Rhizoctonia solani): 933 µM
pEC90 (Botrytis cinerea): 2.93

CC1CC(C)(C)c2cccc(NC(=O)c3cccnc3Cl)c21 (stereo unspecified)
EC50 (Rhizoctonia solani): 7.76 µM
pEC90 (Botrytis cinerea): 4.7

CCCCC1(CC)Cc2cccc(NC(=O)c3cccnc3Cl)c2O1 (stereo unspecified)
EC50 (Rhizoctonia solani): 1550 µM
pEC90 (Botrytis cinerea): 3.04

CC1(C)Oc2cccc(NC(=O)c3cccnc3Cl)c2O1
EC50 (Rhizoctonia solani): 759 µM
pEC90 (Botrytis cinerea): 2.76

CC1OCc2cccc(NC(=O)c3cccnc3Cl)c21 (stereo unspecified)
EC50 (Rhizoctonia solani): 525 µM
pEC90 (Botrytis cinerea): 2.93

CCC1OC(C)(C)c2cccc(NC(=O)c3cccnc3Cl)c21 (stereo unspecified)
EC50 (Rhizoctonia solani): 12.3 µM
pEC90 (Botrytis cinerea): 3.55

CC1CCc2c(NC(=O)c3cccnc3Cl)cccc21 (stereo unspecified)
EC50 (Rhizoctonia solani): 52.5 µM
pEC90 (Botrytis cinerea): 3.03

CC1Oc2cccc(NC(=O)c3cccnc3Cl)c2C1C (stereo unspecified)
EC50 (Rhizoctonia solani): 631 µM
pEC90 (Botrytis cinerea): <2.2

CC1(C)Cc2cccc(NC(=O)c3cccnc3Cl)c2O1
EC50 (Rhizoctonia solani): 214 µM
pEC90 (Botrytis cinerea): 3.84

CCOc1c(NC(=O)c2cccnc2Cl)cccc1C(C)C
EC50 (Rhizoctonia solani): 112 µM
pEC90 (Botrytis cinerea): 3.32

CCc1cccc(NC(=O)c2cccnc2Cl)c1
EC50 (Rhizoctonia solani): 158 µM
pEC90 (Botrytis cinerea): <2.2

O=C(Nc1ccccc1-c1ccccc1)c1cccnc1Cl
EC50 (Rhizoctonia solani): > 6310 µM
pEC90 (Botrytis cinerea): 2.8

CCC1CC(C)(C)c2cccc(NC(=O)c3cccnc3Cl)c21 (stereo unspecified)
EC50 (Rhizoctonia solani): 7.24 µM
pEC90 (Botrytis cinerea): 4.75

CC1CCc2cccc(NC(=O)c3cccnc3Cl)c21 (stereo unspecified)
EC50 (Rhizoctonia solani): 631 µM
pEC90 (Botrytis cinerea): 4.15

C=C(C)c1ccccc1NC(=O)c1cccnc1Cl
EC50 (Rhizoctonia solani): 1170 µM
pEC90 (Botrytis cinerea): 3.78

CC1OC(C)(C)c2cccc(NC(=O)c3cccnc3Cl)c21 (stereo unspecified)
EC50 (Rhizoctonia solani): 14.1 µM
pEC90 (Botrytis cinerea): 3.93

CCC1CC(C)(CC)c2cccc(NC(=O)c3cccnc3Cl)c21 (stereo unspecified)
EC50 (Rhizoctonia solani): 33.9 µM
pEC90 (Botrytis cinerea): 4.58

O=C(Nc1cccc2c1CCC2)c1cccnc1Cl
EC50 (Rhizoctonia solani): 692 µM
pEC90 (Botrytis cinerea): 2.68

CC1Cc2cccc(NC(=O)c3cccnc3Cl)c2C1 (stereo unspecified)
EC50 (Rhizoctonia solani): 692 µM
pEC90 (Botrytis cinerea): 3.11

CC(C)Oc1cccc(NC(=O)c2cccnc2Cl)c1
EC50 (Rhizoctonia solani): 57.5 µM
pEC90 (Botrytis cinerea): <2.2

CCc1ccccc1NC(=O)c1cccnc1Cl
EC50 (Rhizoctonia solani): 2000 µM
pEC90 (Botrytis cinerea): 2.57

CCc1c(C)cccc1NC(=O)c1cccnc1Cl
EC50 (Rhizoctonia solani): 724 µM
pEC90 (Botrytis cinerea): 2.96

CCOc1ccccc1NC(=O)c1cccnc1Cl
EC50 (Rhizoctonia solani): 1100 µM
pEC90 (Botrytis cinerea): 2.48
